Results reported in patent US5665760A, “Lyophilized thioxanthenone antitumor agents” (priority 1995, dated 1997).

Columns and labels:
Type in all cases: in vivo
Panc 02 = assay: antitumor activity in mice against Panc 02; conditions: i.v. bolus days 1-4; for Tumor Free: 28 days of observation
Procedure: (§1) Representative examples of the invention were tested for antitumor activity in mice according to the following procedure:
(§2) The animals were pooled, implanted subcutaneously with 30 to 60 mg tumor fragments by 12-gauge trocar, and again pooled before unselective distribution to the various treatment and control groups. For early-stage treatment, chemotherapy was started within 1 to 5 days after tumor implantation while the number of cells was relatively small (10^7 to 10^8 cells). For advanced-stage treatment, chemotherapy was delayed until the tumor became relatively large (200 to 300 mg in size). A 300-mg tumor contains approximately 3×10^8 total cells. Tumors within a given advanced-stage trial were within a 2.5-fold size range for 90% of the animals. Tumors were measured with a caliper weekly (or twice weekly for the more rapidly growing tumors). Mice were sacrificed when their tumors reached 1500 mg (i.e., before they can cause the animal discomfort). Tumor weights were estimated from two-dimensional measurements.
(§3) The treatment and control groups were measured when the control group tumors reached approximately 700 to 1200 mg in size (Median of Group). The median tumor weight of each group was determined (including zeros). The T/C value (weight of treated tumors over the weight of control tumors) in percent is an indication of antitumor effectiveness: A T/C equal to or less than 42% is considered significant antitumor activity by the Drug Evaluation Branch of the Division of Cancer Treatment (NCl). A T/C value <10% is considered to indicate highly significant antitumor activity. A body weight loss nadir (mean of group) of greater than 20% or greater than 20% drug-deaths is considered to indicate an excessively toxic dosage.

Mammary 16/C = assay: antitumor activity in mice against Mammary 16/C; conditions: for Tumor Free: 23 days of observation
Procedure: as §1
as §2, with “Tumors within a given advanced-stage trial were within a 2.5-fold size range for 90% of the animals.” left out
(§4) The treatment and control groups were measured when the control group tumors reached approximately 700 to 1200 mg in size (Median of Group). The median tumor weight of each group was determined (including zeros). […] A T/C value <10% is considered to indicate highly significant antitumor activity.

Colon 51/A = assay: antitumor activity in mice against Colon 51/A; conditions: i.v. bolus days 3-6, 9, 11
Procedure: as §1
as §2, with “Tumors within a given advanced-stage trial were within a 2.5-fold size range for 90% of the animals.” left out
as §4

[1] = test system: pancreatic ductal adenocarcinoma #03; assay: antitumor activity in mice against pancreatic ductal adenocarcinoma #03 (Panc 03); conditions: for Tumor Free: 245 days of observation
Procedure: as §1
as §2, with “Tumors within a given advanced-stage trial were within a 2.5-fold size range for 90% of the animals.” left out
as §4
(§5) The results are shown in Table I for pancreatic ductal adenocarcinoma #03 and in Table 2 for colon adenocarcinoma #38.

colon adenocarcinoma #38 = assay: antitumor activity in mice against colon adenocarcinoma #38
Procedure: as §1
as §2, with “Tumors within a given advanced-stage trial were within a 2.5-fold size range for 90% of the animals.” left out
as §4, §5

[2] = test system: P388/adriamycin resistant leukemia; assay: P388/adriamycin resistant leukemia, cells implanted i.v.
[3] = test system: Mammary Adenocarcinoma 16/C/RP; assay: antitumor activity in mice against Mammary Adenocarcinoma 16/C/RP
Procedure: as §1, §2, §3

Human MX-1 Mammary = assay: antitumor activity in mice against Human MX-1 Mammary; conditions: i.v. days 1-6 (some changed to p.o.)
Procedure: as §1, §2, §3

[4] = 51 mg/kg total, i.v. bolus days 1-4
[5] = 82 mg/kg total, i.v. bolus days 1-4
[6] = 79 mg/kg total, i.v. bolus days 3-4, 6-14
[7] = 124 mg/kg total, i.v. bolus days 3-4, 6-14
[8] = Table 1, average body weight 25 g, total doses as in E1
[9] = 51 mg/kg total, i.v. bolus days 6-9
[10] = 82 mg/kg total, i.v. bolus days 6-9
[11] = Table 2, i.v., total dose mg/kg by Example: 6:82, 16(a):690, 18(e):120
[12] = 10^6 cells, 280 mg/kg total, i.v. 3 hour infusion day 1
[13] = 10^6 cells, 450 mg/kg total, i.v. 3 hour infusion day 1
[14] = 400 mg/kg total, i.v. infusion days 1, 4
[15] = 600 mg/kg total, i.v. infusion days 1, 4
[16] = 900 mg/kg total, i.v. infusion days 1, 4
[17] = 161 mg/kg total, i.v. days 1-4 (some changed to p.o.)
[18] = 242 mg/kg total, i.v. days 1-4 (some changed to p.o.)
[19] = 363 mg/kg total, i.v. days 1-4 (some changed to p.o.)
[20] = 155 mg/kg total, i.v. days 3-6 (some changed to p.o.)
[21] = 240 mg/kg total, i.v. days 3-6 (some changed to p.o.)
[22] = 420 mg/kg total, i.v. days 3-6 (some changed to p.o.)
[23] = 147 mg/kg total, i.v. days 3-7 (some changed to p.o.)
[24] = 220 mg/kg total, i.v. days 3-7 (some changed to p.o.)
[25] = 330 mg/kg total, i.v. days 3-7 (some changed to p.o.)
[26] = 10^6 cells, 112 mg/kg total, i.v.→p.o. days 1, 4
[27] = 10^6 cells, 248 mg/kg total, i.v.→p.o. days 1, 4
[28] = 10^5 cells, 200 mg/kg total, i.v. 3 hour infusion days 1, 4
[29] = 10^5 cells, 320 mg/kg total, i.v. 3 hour infusion days 1, 4
[30] = 10^5 cells, 520 mg/kg total, i.v. 3 hour infusion days 1, 4
[31] = Mus musculus, ip, read-out: T/C
[32] = Table 2, i.p., total dose mg/kg by Example: 10:340, 11:518
[33] = Table 2, p.o., total dose mg/kg by Example: 10:460, 11:885
[34] = Table 2, p.o., total dose mg/kg by Example: 10:740, 11:1709
[35] = Table 2, total dose 160 mg/kg i.p.
[36] = Table 2, total dose 200 mg/kg i.p.
[37] = Table 2, total dose 865 mg/kg i.p.

## CCN(CC)CCNc1ccc(CNS(C)(=O)=O)c2sc3ccccc3c(=O)c12 [Example 6, N-[[1-[[2-(Diethylamino)ethyl]amino]-9-oxothioxanthen4-yl]methyl]methanesulfonamide]
Panc 02; 51 mg/kg total
  T/C Value: 42%
  Wt. Loss at Nadir: -1.2 g/mouse
  Tumor Free: 0/5
Panc 02; 82 mg/kg total
  T/C Value: 23%
  Wt. Loss at Nadir: -2.0 g/mouse
  Tumor Free: 0/5
Mammary 16/C; [4]
  T/C Value: 13%
  Wt. Loss at Nadir: -1.2 g/mouse
  Tumor Free: 0/5
Mammary 16/C; [5]
  T/C Value: 6%
  Wt. Loss at Nadir: -3.0 g/mouse
  Tumor Free: 0/5
Colon 51/A; 66 mg/kg total
  T/C Value: 28%
  Wt. Loss at Nadir: -2.3 g/mouse
Colon 51/A; 96 mg/kg total
  T/C Value: 14%
  Wt. Loss at Nadir: -3.0 g/mouse
[1]; [6]
  T/C Value: 0%
  Wt. Loss at Nadir: -1.0 g/mouse
  Tumor Free: 1/5
[1]; [7]
  T/C Value: 0%
  Wt. Loss at Nadir: -1.6 g/mouse
  Tumor Free: 3/5
[1]; [8]
  Weight Loss: 1.6 g
[1]; Table 1, total doses as in E1
  Drug Deaths: 0
Colon adenocarcinoma #38; [9]
  T/C Value: 18%
  Wt. Loss at Nadir: -1.2 g/mouse
Colon adenocarcinoma #38; [10]
  T/C Value: 1%
  Wt. Loss at Nadir: -1.7 g/mouse
Colon adenocarcinoma #38; Table 2, i.v., total dose mg/kg by Example: 2:600, 5:960, 6:132, 7:840, 16(a):1000, 18(e):180
  Drug Deaths: 3/7
Colon adenocarcinoma #38; [11]
  Drug Deaths: 1/7
  Weight Loss: 1.7 g
Colon adenocarcinoma #38; mouse, in vivo, iv
  Weight Loss: 5.0 g

## CCN(CC)CCNc1ccc(CNC)c2sc3ccc(OC)cc3c(=O)c12 [Example 30(h), 1-[[2-(Diethylamino)ethyl]amino]-4-[(methylamino)methyl]-7-methoxy-thioxanthen-9-one]
[2]; [12]
  Drug Deaths: 0/7
  Wt. Loss at Nadir: -1.7 g/mouse
[2]; [13]
  Drug Deaths: 0/7
  Wt. Loss at Nadir: -2.3 g/mouse
[2]; iv, 280 mg/kg
  % ILS (percentage increase in lifespan): 69%
  Log10 Tumor cell kill: 6.0
  Tumor Cell: 2/7
[2]; iv, 450 mg/kg
  % ILS (percentage increase in lifespan): 62%
  Log10 Tumor cell kill: 5.3
  Tumor Cell: 0/7
[3]; [14]
  Drug Deaths: 0/5
  T/C Value: 46%
  Wt. Loss at Nadir: -1.0 g/mouse
[3]; [15]
  Drug Deaths: 0/5
  T/C Value: 23%
  Wt. Loss at Nadir: -0.7 g/mouse
[3]; [16]
  Drug Deaths: 1/6
  T/C Value: 29%
  Wt. Loss at Nadir: 0 g/mouse
[1]
  T/C: 0%
[1]; [8]
  Weight Loss: 1.4 g
[1]; Table 1, total doses as in E1
  Drug Deaths: 0

## CCN(CC)CCNc1ccc(CNC(=O)OC)c2sc3ccc(OC)cc3c(=O)c12 [Example 36]
Mammary 16/C; [17]
  Drug Deaths: 0
  T/C Value: 9%
  Wt. Loss at Nadir: -0.4 g/mouse
Mammary 16/C; [18]
  Drug Deaths: 1/5
  T/C Value: 8%
  Wt. Loss at Nadir: -1.2 g/mouse
Mammary 16/C; [19]
  Drug Deaths: 2/5
  T/C Value: 2%
  Wt. Loss at Nadir: -2.4 g/mouse
Human MX-1 Mammary; 132 mg/kg total
  Drug Deaths: 0
  T/C Value: 27%
  Wt. Loss at Nadir: -0.8 g/mouse
Human MX-1 Mammary; 297 mg/kg total
  Drug Deaths: 0
  T/C Value: 39%
  Wt. Loss at Nadir: -2.4 g/mouse
[1]; [20]
  Drug Deaths: 0
  T/C Value: 0%
  Wt. Loss at Nadir: -0.4 g/mouse
[1]; [21]
  Drug Deaths: 0
  T/C Value: 0%
  Wt. Loss at Nadir: -0.4 g/mouse
[1]; [22]
  Drug Deaths: 3/5
  T/C Value: 0%
  Wt. Loss at Nadir: -5.6 g/mouse
[1]; [8]
  Weight Loss: 0.4 g
[1]; Table 1, total doses as in E1
  Drug Deaths: 0
Colon adenocarcinoma #38; [23]
  Drug Deaths: 0
  T/C Value: 0%
  Wt. Loss at Nadir: 0 g/mouse
Colon adenocarcinoma #38; [24]
  Drug Deaths: 0
  T/C Value: 0%
  Wt. Loss at Nadir: -0.8 g/mouse
Colon adenocarcinoma #38; [25]
  Drug Deaths: 0
  T/C Value: 0%
  Wt. Loss at Nadir: -3.2 g/mouse

## CCN(CC)CCNc1ccc(CNS(C)(=O)=O)c2sc3ccc(OC)cc3c(=O)c12 [31(c)]
[2]; [26]
  % ILS (percentage increase in lifespan): 0%
  Log10 Tumor cell kill: 0
  Wt. Loss at Nadir: -2.7 g/mouse
[2]; [27]
  % ILS (percentage increase in lifespan): 0%
  Log10 Tumor cell kill: 0
  Wt. Loss at Nadir: -3.0 g/mouse
[2]; mouse, in vivo, 112 mg/kg
  Drug Deaths: 0/6
[2]; mouse, in vivo, 248 mg/kg
  Drug Deaths: 1/6
[3]; 109.6 mg/kg total, i.v. 2X/day, days 3-6
  T/C Value: 6%
[3]; 156.8 mg/kg total, i.v. 2X/day, days 3-6
  T/C Value: 5%
[3]; 224 mg/kg total, i.v. 2X/day, days 3-6
  T/C Value: 0%
[3]; mouse, in vivo
  Drug Deaths: 0
[1]
  T/C: 0%
[1]; Table 1, total doses as in E1
  Drug Deaths: 0
[1]; mouse, in vivo
  Weight Loss: 5.6 g

## CCN(CC)CCNc1ccc(CNC(C)=O)c2sc3ccccc3c(=O)c12 [Example 10, N-[[1-[[2-(Diethylamino)ethyl]amino]-9-oxo-thioxanthen-4-yl]methyl]acetamide]
[2]; [28]
  Drug Deaths: 0/7
  Wt. Loss at Nadir: -1.5 g/mouse
[2]; [29]
  Drug Deaths: 0/5
  Wt. Loss at Nadir: -1.75 g/mouse
[2]; [30]
  Drug Deaths: 3/7
  Wt. Loss at Nadir: -3.75 g/mouse
[2]; iv, 200 mg/kg
  Tumor Cell: 0/7
[2]; iv, 200 mg/kg, 3 h
  % ILS (percentage increase in lifespan): 8%
  Log10 Tumor cell kill: 0.5
[2]; iv, 320 mg/kg
  Tumor Cell: 0/5
[2]; iv, 320 mg/kg, 3 h
  % ILS (percentage increase in lifespan): 23%
  Log10 Tumor cell kill: 1.5
[2]; iv, 520 mg/kg, 3 h
  % ILS (percentage increase in lifespan): 54%
  Log10 Tumor cell kill: 3.5
[1]; [8]
  Weight Loss: 2.4 g
[1]; Table 1, total doses as in E1
  Drug Deaths: 0
Colon adenocarcinoma #38; [31]
  response vs control in vivo at 160 mg/kg: 22%
  response vs control in vivo at 200 mg/kg: 24%
  response vs control in vivo at 865 mg/kg: 23%
Colon adenocarcinoma #38; [32]
  Drug Deaths: 0
  Weight Loss: 4.0 g
Colon adenocarcinoma #38; [33]
  Drug Deaths: 0
  Weight Loss: 1.2 g
Colon adenocarcinoma #38; [34]
  Drug Deaths: 2/5
  Weight Loss: 4.0 g
Colon adenocarcinoma #38; [35]
  Drug Deaths: 0
  Weight Loss: 0.6 g
Colon adenocarcinoma #38; [36]
  Drug Deaths: 0
  Weight Loss: 2.3 g
Colon adenocarcinoma #38; [37]
  Drug Deaths: 0
  Weight Loss: 2.0 g
